Results published in patent publication US9585823B2, “Personal care compositions comprising a multi-active system for down regulating cytokines irritation” (The Gillette Company, priority 2010, dated 2017).

Test system: hTERT keratinocytes
Assay type: cell-based
Protocol: To ensure proper levels of the biological active molecules for the in vitro study, dilution studies were conducted and ATP was analyzed for the highest non-cytotoxic concentration. Olivem 460 (lot LG0833 from B&T, Milan Italy) at a level of 0.000156% and SymRelief (from Symrise) at a level of 0.0625% were determined to be appropriate respective concentrations for this study. ATP analysis is described below.
ATP analysis was conducted using Cell Titer-Glo. The CellTiter-Glo Luminescent Cell Viability Assay was obtained from Promega Corporation (Madison, Wis.). This assay is a homogeneous method for determining the number of viable cells in culture based on quantitation of ATP present, signaling the presence of metabolically active cells. After the final treatment and supernatants collected, the CellTiter-Glo reagent was added. The reagent was then transferred to a BD Falcon (Franklin Lakes, N.J.) Microtest 96-well Assay Plate (black, flat bottom, reference 353945, lot 041151). Luminescence was read on a Perkin Elmer Fluorimeter (Wallac Envision 2101 Multilabel Reader). Relative luminescence units were plotted in percent control versus treatment concentration.

Substance | highest non-cytotoxic concentration (level determined appropriate for the study)
Bisabolol (and) Zingiber Officinale Root Extract [SymRelief] | 0.0625%
Sodium PEG-7 Olive Oil Carboxylate [Olivem 460] | 0.000156%
